In ChEMBL document CHEMBL1125065, “Synthesis and anti-HIV activity of carbocyclic 2',3'-didehydro-2',3'-dideoxy 2,6-disubstituted purine nucleosides” (J Med Chem, 1990):
≈ marks a conversion by molar mass, not a printed value.

Tests used:
[1] = Therapeutic index for the compound was determined (IC50/EC50); conditions: read-out: TI
P388 = experiment: Inhibitory concentration of compound for P-388 Leukemia cell culture; assay type: functional; conditions: Mus musculus, read-out: ED50 (the source's name)
MT2 [2] = experiment: Inhibitory concentration that reduces formazan production in uninfected MT-2 cells.; conditions: Homo sapiens
MT2 [3] = experiment: Effective concentration that increases formazan production in infected MT-2 cells; assay type: functional, cell-based; conditions: Homo sapiens
CCRF-CEM [4] = experiment: Inhibitory effect against synthesis of p24 gag protein in CEM cells.; assay type: functional, Homo sapiens
CCRF-CEM [5] = experiment: Percent reduction in p24 gag expression in CEM cells; assay type: functional, Homo sapiens

SMILES	EC50 (P388) [µg/mL]	EC50 (MT2 [3]) [µg/mL]	selectivity ratio [1]	IC50 (MT2 [2]) [µg/mL]	p24 synthesis (CCRF-CEM [4]) [ng/mL]	Reduction (CCRF-CEM [5]) [%]
Nc1nc(Cl)c2ncn(C3CCC(CO)C3)c2n1 (stereo not given)	> 100	> 100		> 100		
Nc1nc(O)c2nnn(C3CCC(CO)C3)c2n1 (stereo not given)	51 (≈ 204 µM)					
Nc1nc(N)c2nnn(C3CCC(CO)C3)c2n1 (stereo not given)	> 100					
Nc1nc(Cl)c2nnn(C3CCC(CO)C3)c2n1 (stereo not given)	18 (≈ 67 µM)					
Nc1nc(O)c2ncn(C3CCC(CO)C3)c2n1 (stereo not given)	> 100	> 100		> 100		
Nc1ccn([C@H]2CC[C@@H](CO)O2)c(=O)n1 [ZALCITABINE]		0.29 (≈ 1.37 µM)	152	44 (≈ 208 µM)		
Cc1cn([C@H]2C[C@H](N=[N+]=[N-])[C@@H](CO)O2)c(=O)[nH]c1=O [ZIDOVUDINE]					32	>99.96

Continued, in another order:

EC50 (P388) [µg/mL]	EC50 (MT2 [3]) [µg/mL]	SMILES	selectivity ratio [1]	IC50 (MT2 [2]) [µg/mL]	p24 synthesis (CCRF-CEM [4]) [ng/mL]	Reduction (CCRF-CEM [5]) [%]
> 100	4.7 (≈ 19.1 µM)	Nc1nc(N)c2ncn(C3C=CC(CO)C3)c2n1 (stereo not given)	> 26.6	> 125		
> 100		Nc1nc(N)c2nnn(C3C=CC(CO)C3)c2n1 (stereo not given)				
4.5 (≈ 18.1 µM)		Nc1nc(O)c2nnn(C3C=CC(CO)C3)c2n1 (stereo not given)				
1 (≈ 3.75 µM)		Nc1nc(Cl)c2nnn(C3C=CC(CO)C3)c2n1 (stereo not given)				
75 (≈ 282 µM)	0.4 (≈ 1.51 µM)	Nc1nc(Cl)c2ncn(C3C=CC(CO)C3)c2n1 (stereo not given)	17.3	6.97 (≈ 26.2 µM)		
80 (≈ 322 µM)	16.7 (≈ 67.3 µM)	Nc1nc(N)c2ncn(C3CCC(CO)C3)c2n1 (stereo not given)	> 5.9	> 100		
> 100	0.19 (≈ 0.768 µM)	Nc1nc2c(ncn2[C@H]2C=C[C@@H](CO)C2)c(=O)[nH]1 [CARBOVIR]	220	41.8 (≈ 169 µM)	28	>99.97
